Like-named read-outs stand apart in the source and are kept apart here.
Tests used:
human PDE3A isozyme = human PDE3A isozyme (Homo sapiens, UniProt Q14432); assay: IMAP fluorescence polarization phosphodiesterase assay; assay type: biochemical; conditions: for % PDE3 Inhibition at 50 μM, cGMP: cGMP as substrate
[1] = tested on: human HT-29 colon tumor cell line; assay: Tumor cell growth inhibition, Cell Titer Glo assay, 72 h; assay type: cell-based; conditions: HT-29 cells

Chain of human PDE3A isozyme (Q14432 whole entry): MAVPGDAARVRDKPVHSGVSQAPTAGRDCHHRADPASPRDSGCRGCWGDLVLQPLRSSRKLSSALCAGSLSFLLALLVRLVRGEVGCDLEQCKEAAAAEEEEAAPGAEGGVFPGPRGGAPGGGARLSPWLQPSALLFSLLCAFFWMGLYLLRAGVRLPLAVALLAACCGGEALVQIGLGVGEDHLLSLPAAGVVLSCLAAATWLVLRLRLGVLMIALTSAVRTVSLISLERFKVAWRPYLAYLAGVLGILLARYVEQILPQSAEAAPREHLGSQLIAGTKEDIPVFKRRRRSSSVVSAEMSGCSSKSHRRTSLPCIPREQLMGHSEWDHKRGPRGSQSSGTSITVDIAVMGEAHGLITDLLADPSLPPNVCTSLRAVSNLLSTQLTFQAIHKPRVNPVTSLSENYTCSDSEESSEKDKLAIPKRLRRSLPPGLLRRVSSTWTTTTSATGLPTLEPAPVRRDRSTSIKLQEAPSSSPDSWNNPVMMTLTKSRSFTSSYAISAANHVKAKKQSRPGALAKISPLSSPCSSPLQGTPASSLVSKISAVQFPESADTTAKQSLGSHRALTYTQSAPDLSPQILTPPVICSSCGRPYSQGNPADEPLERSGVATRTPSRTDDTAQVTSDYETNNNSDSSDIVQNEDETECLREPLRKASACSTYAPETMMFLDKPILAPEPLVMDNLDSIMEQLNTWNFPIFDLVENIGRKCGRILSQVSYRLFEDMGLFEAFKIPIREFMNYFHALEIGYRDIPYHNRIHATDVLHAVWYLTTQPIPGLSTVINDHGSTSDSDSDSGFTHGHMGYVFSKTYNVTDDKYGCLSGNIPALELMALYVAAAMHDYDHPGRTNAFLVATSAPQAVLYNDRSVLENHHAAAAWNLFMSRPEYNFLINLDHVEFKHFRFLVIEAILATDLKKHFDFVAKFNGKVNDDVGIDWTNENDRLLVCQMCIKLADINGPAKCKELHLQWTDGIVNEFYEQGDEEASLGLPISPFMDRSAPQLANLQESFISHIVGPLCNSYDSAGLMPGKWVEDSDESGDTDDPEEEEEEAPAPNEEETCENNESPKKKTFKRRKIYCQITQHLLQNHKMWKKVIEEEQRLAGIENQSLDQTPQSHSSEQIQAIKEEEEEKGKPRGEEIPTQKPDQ

Row | Molecule | tumor cell growth inhibitory activity (in words) [1] | further results
1 | 2-Imino-4-phenyl-6-(thiophen-3-yl)-1,2-dihydropyridine-3-carbonitrile [Compound 25] |  | % PDE3 Inhibition at 50 μM, cAMP (human PDE3A isozyme; 50 μM, cAMP as substrate): 21%; % PDE3 Inhibition at 50 μM, cGMP (human PDE3A isozyme; 50 μM): 26%
2 | N#Cc1c(-c2ccccc2O)cc(-c2ccc(Br)cc2)[nH]c1=O [Compound 1, 6-(4-Bromophenyl)-4-(2-hydroxyphenyl)-2-oxo-1,2-dihydropyridine-3-carbonitrile] | displayed tumor cell growth inhibitory activity | 
3 | COc1ccc(OC)c(-c2cc(-c3ccc(Br)cc3)[nH]c(=N)c2C#N)c1 [Compound 9, 6-(4-Bromophenyl)-4-(2,5-dimethoxyphenyl)-2-imino1,2-dihydropyridine3-carbonitrile] | displayed tumor cell growth inhibitory activity | 
4 | N#Cc1c(-c2cccc(Cl)c2)cc(-c2ccccc2)[nH]c1=O [Compound 15, 4-(3-Chlorophenyl)-2-oxo-6-phenyl-1,2-dihydropyridine-3-carbonitrile] | displayed tumor cell growth inhibitory activity | 
5 | N#Cc1c(-c2ccccc2O)cc(-c2ccsc2)[nH]c1=O [Compound 19, 4-(2-Hydroxyphenyl)-2-oxo-6-thiophen-3-yl-1,2-dihydropyridine-3-carbonitrile] | displayed tumor cell growth inhibitory activity | 
6 | CCOc1ccccc1-c1cc(-c2ccsc2)[nH]c(=O)c1C#N [Compound 21, 4-(2-Ethoxyphenyl)-2-oxo-6-thiophen-3-yl-1,2-dihydropyridine-3 carbonitrile] | displayed tumor cell growth inhibitory activity | 
7 | CCOc1ccc(-c2cc(-c3ccsc3)[nH]c(=N)c2C#N)cc1 [Compound 26, 4-(4-Ethoxyphenyl)-2-imino-6-(thiophen-3-yl)-1,2-dihydropyridine-3-carbonitrile] | no tumor cell growth inhibitory activity | % PDE3 Inhibition at 50 μM, cGMP (human PDE3A isozyme; 50 μM): > 50%; inhibition at 50 µM (human PDE3A isozyme; read-out: % PDE3 Inhibition at 50 μM, cAMP, 50 μM, cAMP as substrate): > 50%
8 | CCOc1ccccc1-c1cc(-c2ccsc2)[nH]c(=N)c1C#N [Compound 27, 4-(2-Ethoxyphenyl)-2-imino-6-(thiophen-3-yl)-1,2-dihydropyridine-3-carbonitrile] | displayed tumor cell growth inhibitory activity | 
9 | COc1ccc(-c2cc(-c3ccsc3)[nH]c(=N)c2C#N)cc1 [Compound 28, 2-Imino-4-(4-methoxyphenyl)-6-(thiophen-3-yl)-1,2-dihydropyridine-3-carbonitrile] | displayed tumor cell growth inhibitory activity | 
10 | COc1ccccc1-c1cc(-c2ccsc2)[nH]c(=N)c1C#N [Compound 29, 2-Imino-4-(2-methoxyphenyl)-6-(thiophen-3-yl)-1,2-dihydropyridine-3-carbonitrile] | displayed tumor cell growth inhibitory activity | inhibition at 50 µM (human PDE3A isozyme; read-out: % PDE3 Inhibition at 50 μM, cGMP, 50 μM, cGMP as substrate): -95%

— paper PMC4980843 (European journal of medicinal chemistry, 2009)
